Assay results reported in patent publication US9132140B2, “Boronic acid derivatives and therapeutic uses thereof” (Rempex Pharmaceuticals, Inc., priority 2013, dated 2015).
Where two headings read alike, the source gives them in different places.

Key:
ECM6711 (pUCP24-VIM-1) = assay: microbe, parasite or virus in culture; assay type: cell-based, E. coli; settings: Escherichia coli, read-out: Imipenem MIC Alone
EA1019 (SHV-5, VIM-1) = assay type: cell-based, Enterobacter aerogenes
Excerpt: (§1) Several strains simultaneously expressing both class A and class B carbapenemases, which were constructed using conjugation, were also included in the panel.

[1] = system: KP1081 (NDM-1, TEM-1, SHV-11, CMY-6, CTX-M-15); assay type: cell-based, Klebsiella pneumoniae
Excerpt: (§2) The results are present in Table 6.
(§3) The results are present in Table 7.

[2] = system: KP1087 (KPC-2, CTX-M-15, SHV-11, TEM-1); assay type: cell-based, Klebsiella pneumoniae
Excerpt: as §2, §3

EC1068 (VIM-1) = assay type: cell-based, Escherichia coli
Excerpt: as §1

EC1061 (NDM-1, CMY-6) = assay type: cell-based, Escherichia coli
Excerpt: as §1

EC1065 (IMP-1 CMY-2) = assay type: cell-based, Escherichia coli
Excerpt: as §1

[3] = system: EC1064 (NDM-1, CMY-6, CTX-M-15); assay type: cell-based, Escherichia coli
Excerpt: as §1

[4] = system: KP1081 (NDM-1, TEM-1, SHV-11, CMY-6, CTX-M-15); assay type: cell-based, Klebsiella pneumoniae; remark: listed apart in the source
Excerpt: as §1

KP1014 (Vim-1, TEM, SHV) = assay type: cell-based, Klebsiella pneumoniae
Excerpt: as §1

KPM1123 (KPC-2 TEM SHV) = assay type: cell-based, Klebsiella pneumoniae
Excerpt: as §1

KPM1108 (NDM, KPC) = assay type: cell-based, Klebsiella pneumoniae
Excerpt: as §1

KP1064 (KPC TEM SHV) = assay type: cell-based, Klebsiella pneumoniae
Excerpt: as §1

KPM1110 (NDM, KPC) = assay type: cell-based, Klebsiella pneumoniae
Excerpt: as §1

[5] = system: KPM1347 (NDM-1 SHV CTX-M-15); assay type: cell-based, Klebsiella pneumoniae
Excerpt: as §1

KP1059 (VIM-1, SHV-11) = assay type: cell-based, Klebsiella pneumoniae
Excerpt: as §1

KPM1111 (NDM, KPC) = assay type: cell-based, Klebsiella pneumoniae
Excerpt: as §1

KP1004 (KPC TEM SHV) = assay type: cell-based, Klebsiella pneumoniae
Excerpt: as §1

KP1097 (IMP-1 SHV) = assay type: cell-based, Klebsiella pneumoniae
Excerpt: as §1

KPM1344 (VIM-1) = assay type: cell-based, Klebsiella pneumoniae
Excerpt: as §1

KP1054 (VIM-1, SHV-11) = assay type: cell-based, Klebsiella pneumoniae
Excerpt: as §1

KPM1345 (VIM-1 SHV) = assay type: cell-based, Klebsiella pneumoniae
Excerpt: as §1

KPM1097 (NDM, KPC) = assay type: cell-based, Klebsiella pneumoniae
Excerpt: as §1

C[C@@H](O)[C@H]1C(=O)N2C(C(=O)O)=C(SCCN=CN)C[C@H]12 [Imipenem, reference compound]
MIC (ECM6711 (pUCP24-VIM-1)): > 1 mg/L
Carbapenem MIC alone (EA1019 (SHV-5, VIM-1)): Z (key: X: MIC of less than 1 μg/mL; Y: MIC of 1 μg/mL to 10 μg/mL; Z: MIC of greater than 10 μg/mL)
Carbapenem MIC alone [1]: Z (key: X: MIC of less than 1 μg/mL; Y: MIC of 1 μg/mL to 10 μg/mL; Z: MIC of greater than 10 μg/mL)
Carbapenem MIC alone [2]: Y (key: X: MIC of less than 1 μg/mL; Y: MIC of 1 μg/mL to 10 μg/mL; Z: MIC of greater than 10 μg/mL)
Carbapenem MIC alone (EC1068 (VIM-1)): Y (key: X: MIC of less than 1 μg/mL; Y: MIC of 1 μg/mL to 10 μg/mL; Z: MIC of greater than 10 μg/mL)
Carbapenem MIC alone (EC1061 (NDM-1, CMY-6)): Y (key: X: MIC of less than 1 μg/mL; Y: MIC of 1 μg/mL to 10 μg/mL; Z: MIC of greater than 10 μg/mL)
Carbapenem MIC alone (EC1065 (IMP-1 CMY-2)): Y (key: X: MIC of less than 1 μg/mL; Y: MIC of 1 μg/mL to 10 μg/mL; Z: MIC of greater than 10 μg/mL)
Carbapenem MIC alone [3]: Z (key: X: MIC of less than 1 μg/mL; Y: MIC of 1 μg/mL to 10 μg/mL; Z: MIC of greater than 10 μg/mL)
Carbapenem MIC alone [4]: Z (key: X: MIC of less than 1 μg/mL; Y: MIC of 1 μg/mL to 10 μg/mL; Z: MIC of greater than 10 μg/mL)
Carbapenem MIC alone (KP1014 (Vim-1, TEM, SHV)): Z (key: X: MIC of less than 1 μg/mL; Y: MIC of 1 μg/mL to 10 μg/mL; Z: MIC of greater than 10 μg/mL)
Carbapenem MIC alone (KPM1123 (KPC-2 TEM SHV)): Z (key: X: MIC of less than 1 μg/mL; Y: MIC of 1 μg/mL to 10 μg/mL; Z: MIC of greater than 10 μg/mL)
Carbapenem MIC alone (KPM1108 (NDM, KPC)): Z (key: X: MIC of less than 1 μg/mL; Y: MIC of 1 μg/mL to 10 μg/mL; Z: MIC of greater than 10 μg/mL)
Carbapenem MIC alone (KP1064 (KPC TEM SHV)): Z (key: X: MIC of less than 1 μg/mL; Y: MIC of 1 μg/mL to 10 μg/mL; Z: MIC of greater than 10 μg/mL)
Carbapenem MIC alone (KPM1110 (NDM, KPC)): Z (key: X: MIC of less than 1 μg/mL; Y: MIC of 1 μg/mL to 10 μg/mL; Z: MIC of greater than 10 μg/mL)
Carbapenem MIC alone [5]: Z (key: X: MIC of less than 1 μg/mL; Y: MIC of 1 μg/mL to 10 μg/mL; Z: MIC of greater than 10 μg/mL)
Carbapenem MIC alone (KP1059 (VIM-1, SHV-11)): Z (key: X: MIC of less than 1 μg/mL; Y: MIC of 1 μg/mL to 10 μg/mL; Z: MIC of greater than 10 μg/mL)
Carbapenem MIC alone (KPM1111 (NDM, KPC)): Z (key: X: MIC of less than 1 μg/mL; Y: MIC of 1 μg/mL to 10 μg/mL; Z: MIC of greater than 10 μg/mL)
Carbapenem MIC alone (KP1004 (KPC TEM SHV)): Z (key: X: MIC of less than 1 μg/mL; Y: MIC of 1 μg/mL to 10 μg/mL; Z: MIC of greater than 10 μg/mL)
Carbapenem MIC alone (KP1097 (IMP-1 SHV)): Y (key: X: MIC of less than 1 μg/mL; Y: MIC of 1 μg/mL to 10 μg/mL; Z: MIC of greater than 10 μg/mL)
Carbapenem MIC alone (KPM1344 (VIM-1)): Z (key: X: MIC of less than 1 μg/mL; Y: MIC of 1 μg/mL to 10 μg/mL; Z: MIC of greater than 10 μg/mL)
Carbapenem MIC alone (KP1054 (VIM-1, SHV-11)): Y (key: X: MIC of less than 1 μg/mL; Y: MIC of 1 μg/mL to 10 μg/mL; Z: MIC of greater than 10 μg/mL)
Carbapenem MIC alone (KPM1345 (VIM-1 SHV)): Y (key: X: MIC of less than 1 μg/mL; Y: MIC of 1 μg/mL to 10 μg/mL; Z: MIC of greater than 10 μg/mL)
Carbapenem MIC alone (KPM1097 (NDM, KPC)): Z (key: X: MIC of less than 1 μg/mL; Y: MIC of 1 μg/mL to 10 μg/mL; Z: MIC of greater than 10 μg/mL)
